Laboratory results reported in publication PMC8455565 (Scientific Reports, 2021).

Experiments:
CD8+ Memory (CD3+CD28) = test: High-dimensional phosphorylation analysis, CD8+ Memory (CD3+CD28); assay type: cell-based, human; details: 30 µM, 5'
Description: (§1) The analysis measured 94 intracellular signaling nodes (81 phosphorylation sites, 10 total protein levels and 3 methylation/acetylation sites) in stimulated immune cells, including B cells (IgM plus CD40L), CD4 + and CD8 + T cells (IL-2; CD3 plus CD28), monocytes (M-CSF), NK cells (IL-2), and granulocytes (LPS).

BTK [1] = biological target: T1, BTK (Homo sapiens, UniProt Q06187); test: Phase I BTK occupancy (free BTK ELISA) in PBMCs of healthy volunteers; assay type: in vivo; set-up: endogenous in cells; host or cells: PBMCs of healthy volunteers
Description: PK/PD data from 24 subjects who had received the drug BID among the 90 total subjects who participated in the MAD study were analyzed. Blood was collected on day 1 before drug administration and 1 h, 2 h, 4 h, and 12 h after drug administration. Blood samples were taken 3 days and 2 h after drug administration. Additional blood samples were taken on day 6 (5, 20, and 60 mg/kg), day 15 (40 mg/kg), day 17, and day 21 for PK/PD analysis.
The BTK occupancy assay and analysis of BTK phosphorylation inhibition were performed as described previously. Briefly, isolated PBMCs were lysed with RIPA buffer (R0278, Sigma-Aldrich) containing 1 × protease/phosphatase inhibitor (1861281, Thermo Fisher Scientific) and EDTA (1861274, Thermo Fisher Scientific). The supernatants were collected by 10 min at 14,000 × g in microcentrifuge at 4 °C and biotinylated probe was added to bind free BTK for 1 h. Rabbit anti-BTK Ab (1:5000 in 1% BSA) bound the captured BTK/probe complex, and was detected with […] antibody conjugated with HRP then ultra-TMB solution was added to each well for the free BTK analysis. Analysis of free and total BTK levels for the phase I study was conducted by Cambridge Biomedical Inc. (MA, USA). BTK occupancy was calculated by taking the free BTK and total BTK results from a given donor and used the following formula: %BTKoccupancy=100%-FreeBTK/totalBTK×100.

BTK [2] = biological target: T1, BTK; test: BTK kinase activity, Z'-LYTE FRET biochemical assay; set-up: purchased Thermo Fisher Scientific PV3363; details: mean ± S.D; read-out: IC50, hBTK biochemical assay
Description: The kinase activity of BTK was measured using the Z′-LYTE assay based on fluorescence resonance energy transfer (FRET). […] Briefly, BTK, peptide, ATP and inhibitor mixtures were incubated for 1 h at room temperature. Then, Development Reagent A was added to each well, and incubation proceeded for another 1 h. […] The data were analyzed by GraphPad Prism 6 (GraphPad Software, CA, USA) to determine the IC50 values.

STAT5 (Y694) = test: IL-2-stimulated STAT5 phosphorylation (JAK3 signaling) in T and NK cells; assay type: cell-based, human; details: 30 μM
Description: as §1

NK cells (LPS) = test: High-dimensional phosphorylation analysis, NK cells (LPS); assay type: cell-based, human; details: 30 µM, 60'
CTLL-2 = test: IL-2 induced T cell proliferation in CTLL-2; assay type: cell-based; details: Mus musculus, cellular level
Monocytes (M-CSF) = test: High-dimensional phosphorylation analysis, Monocytes (M-CSF); assay type: cell-based, human
Description: as §1

[3] = Plasma pharmacokinetics in CIA model rats; assay type: in vivo; details: Lewis, rat; for AUC(0-t) / Tmax / Cmax: day 9, mean ± SD; for Cmax: po
Description: After drug administration, whole blood was collected from CIA model rats and human subjects at the indicated times. Plasma was obtained by centrifugation at 12,000 rpm for 2 min and stored at − 20 °C until analysis.

BTK [4] = biological target: T1, BTK; test: BTK occupancy in B cell line (Ramos cells, biotinylated probe, AlphaScreen); assay type: cell-based
Description: A total of 5 × 10^5 Ramos cells/well were plated in 96-well PDL-coated plates in DMEM with high glucose (GIBCO) supplemented with 10% FBS. Serial dilutions of LY3439943 in DMSO (final DMSO concentration, 0.4%) were incubated with the cells for 1 h at 37 °C. An equal volume of a covalent biotinylated BTK probe was added (final concentration, 167 nM), and the cells were incubated for another 1 h at 37 °C. The cells were lysed, and the amount of BTK was determined using the AlphaScreen IgG Detection Kit (Perkin Elmer 6760617R) and an anti-BTK antibody (Thermo Scientific Cat# MA5-14929) following the manufacturer’s instructions. The signal was measured at 615 nm with an Envision plate reader (Perkin Elmer).

A431 = test: Cell growth inhibition in EGFR overexpressed A431; assay type: cell-based; details: Homo sapiens, A-431; cellular level; read-out: IC50, cell growth inhibition in EGFR overexppressed A431

T1 sequence (Q06187 whole entry): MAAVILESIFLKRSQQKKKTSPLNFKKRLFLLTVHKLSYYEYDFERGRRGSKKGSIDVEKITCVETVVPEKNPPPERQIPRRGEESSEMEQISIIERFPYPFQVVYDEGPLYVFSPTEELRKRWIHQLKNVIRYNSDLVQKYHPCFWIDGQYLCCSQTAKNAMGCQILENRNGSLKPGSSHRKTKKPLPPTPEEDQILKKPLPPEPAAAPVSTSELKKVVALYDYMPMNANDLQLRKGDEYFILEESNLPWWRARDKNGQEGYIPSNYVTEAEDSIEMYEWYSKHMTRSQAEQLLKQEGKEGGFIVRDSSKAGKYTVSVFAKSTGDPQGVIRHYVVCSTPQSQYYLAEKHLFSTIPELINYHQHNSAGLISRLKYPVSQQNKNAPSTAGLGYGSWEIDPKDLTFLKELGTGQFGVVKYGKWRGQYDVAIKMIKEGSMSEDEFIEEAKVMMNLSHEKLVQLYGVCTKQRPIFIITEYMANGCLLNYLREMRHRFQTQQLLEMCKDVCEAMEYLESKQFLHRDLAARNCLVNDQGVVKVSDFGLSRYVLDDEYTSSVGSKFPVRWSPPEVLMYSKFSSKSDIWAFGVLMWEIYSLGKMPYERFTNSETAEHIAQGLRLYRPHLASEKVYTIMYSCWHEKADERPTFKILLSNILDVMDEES

**Q.** For `C=CC(=O)Nc1cccc(Oc2nc(Nc3ccc(N4CCN(C)CC4)cc3)nc3ccoc23)c1` [Poseltinib], which “BTK phosphorylation, Log2Ratio Stim/Control” value (CD8+ Memory (CD3+CD28)) is on record?
**A.** 1.34

**Q.** What about the “CrL phosphorylation, Log2Ratio Stim/Control” value (CD8+ Memory (CD3+CD28)) of the same molecule?
**A.** 1.59

**Q.** What about the “HS1 phosphorylation, Log2Ratio Stim/Control” value (CD8+ Memory (CD3+CD28)) of the same molecule?
**A.** 0.56

**Q.** What about the “LCK phosphorylation, Log2Ratio Stim/Control” value (CD8+ Memory (CD3+CD28)) of the same molecule?
**A.** 1.52

**Q.** What about the “PLCγ2 phosphorylation, Log2Ratio Stim/Control” value (CD8+ Memory (CD3+CD28)) of the same molecule?
**A.** 2.55

**Q.** What about the “RPS6KA1 phosphorylation, Log2Ratio Stim/Control” value (CD8+ Memory (CD3+CD28)) of the same molecule?
**A.** 0.47

**Q.** And the “SRC phosphorylation, Log2Ratio Stim/Control” value (CD8+ Memory (CD3+CD28))?
**A.** 0.80

**Q.** What about the “WIPF1 phosphorylation, Log2Ratio Stim/Control” value (CD8+ Memory (CD3+CD28)) of the same molecule?
**A.** 0.82

**Q.** And the “ZAP70 phosphorylation, Log2Ratio Stim/Control” value (CD8+ Memory (CD3+CD28))?
**A.** 1.33

**Q.** And the “time of maximum BTK inhibition” value (BTK [1]; 40 mg)?
**A.** 12 h

**Q.** And the BTK occupancy (BTK [1]; 40 mg dosing, maintained up to 48 h after the first dose)?
**A.** More than 80%

**Q.** What about the “time of maximum BTK inhibition” value (BTK [1]; 60 mg) of the same molecule?
**A.** 4 h

**Q.** What about the BTK inhibition (BTK [1]; 4 h after the first dose, doses of 40 mg and higher) of the same molecule?
**A.** > 90%

**Q.** And the inhibition at 20 mg (BTK [1]; human, steady state (120 h), doses of 20 mg bid and higher)?
**A.** > 90%

**Q.** What about the IC50 (BTK [2]) of the same molecule?
**A.** 4 nM

**Q.** What about the “IL-2-stimulated phosphorylation of STAT5 (Y694)” value (shortened to “IL-2-stimulated phosphorylation”) (STAT5 (Y694); CD4 + T cells) of the same molecule?
**A.** inhibited

**Q.** What about the “IL-2-stimulated phosphorylation” value (STAT5 (Y694); CD8 + T cells) of the same molecule?
**A.** inhibited

**Q.** What about the “IL-2-stimulated phosphorylation” value (STAT5 (Y694); NK cells) of the same molecule?
**A.** inhibited

**Q.** And the “AKT1 phosphorylation, Log2Ratio Stim/Control” value (NK cells (LPS))?
**A.** 0.44

**Q.** And the “Akt phosphorylation, Log2Ratio Stim/Control” value (NK cells (LPS))?
**A.** 0.54

**Q.** What about the “BTK phosphorylation, Log2Ratio Stim/Control” value (NK cells (LPS)) of the same molecule?
**A.** -0.04

**Q.** And the “GSK3B phosphorylation, Log2Ratio Stim/Control” value (NK cells (LPS))?
**A.** 0.91

**Q.** What about the “MAP2K1 phosphorylation, Log2Ratio Stim/Control” value (NK cells (LPS)) of the same molecule?
**A.** 0.51

**Q.** What about the “MNK phosphorylation, Log2Ratio Stim/Control” value (NK cells (LPS)) of the same molecule?
**A.** 0.07

**Q.** What about the “P38 phosphorylation, Log2Ratio Stim/Control” value (NK cells (LPS)) of the same molecule?
**A.** 0.36

**Q.** What about the “RPS6 phosphorylation, Log2Ratio Stim/Control” value (NK cells (LPS)) of the same molecule?
**A.** 0.30

**Q.** What about the “SMAD2 phosphorylation, Log2Ratio Stim/Control” value (NK cells (LPS); first SMAD2 line) of the same molecule?
**A.** 0.67

**Q.** And the “SMAD2 phosphorylation, Log2Ratio Stim/Control” value (NK cells (LPS); second SMAD2 line)?
**A.** 0.07

**Q.** What about the IC50 (CTLL-2) of the same molecule?
**A.** > 500 nM

**Q.** And the “AKT1 phosphorylation, Log2Ratio Stim/Control” value (Monocytes (M-CSF); 30 µM, 5')?
**A.** 0.41

**Q.** And the “Akt phosphorylation, Log2Ratio Stim/Control” value (Monocytes (M-CSF); 30 µM, 5')?
**A.** 1.06

**Q.** And the “BTK phosphorylation, Log2Ratio Stim/Control” value (Monocytes (M-CSF); 30 µM, 5')?
**A.** -0.12

**Q.** What about the “GSK3B phosphorylation, Log2Ratio Stim/Control” value (Monocytes (M-CSF); 30 µM, 5') of the same molecule?
**A.** 0.82

**Q.** And the “HSP27 phosphorylation, Log2Ratio Stim/Control” value (Monocytes (M-CSF); 30 µM, 5')?
**A.** 1.80

**Q.** And the “MAPK3 phosphorylation, Log2Ratio Stim/Control” value (Monocytes (M-CSF); 30 µM, 5')?
**A.** 1.88

**Q.** What about the “NDRG1 phosphorylation, Log2Ratio Stim/Control” value (Monocytes (M-CSF); 30 µM, 5') of the same molecule?
**A.** 0.97

**Q.** What about the “RELB phosphorylation, Log2Ratio Stim/Control” value (Monocytes (M-CSF); 30 µM, 5') of the same molecule?
**A.** 0.82

**Q.** What about the “RPS6KA1 phosphorylation, Log2Ratio Stim/Control” value (Monocytes (M-CSF); 30 µM, 5') of the same molecule?
**A.** 1.33

**Q.** What about the “RPS6 phosphorylation, Log2Ratio Stim/Control” value (Monocytes (M-CSF); 30 µM, 5') of the same molecule?
**A.** 0.89

**Q.** What about the “AKT phosphorylation in monocytes stimulated with M-CSF” value (Monocytes (M-CSF); data not shown) of the same molecule?
**A.** did not inhibit

**Q.** And the AUC(0-t) ([3]; 0.3 mg/kg oral)?
**A.** 2 ± 1.8 ng·h/mL

**Q.** And the Tmax ([3]; 0.3 mg/kg oral)?
**A.** 36 ± 18 min

**Q.** And the AUC(0-t) ([3]; 1 mg/kg oral)?
**A.** 10 ± 3.6 ng·h/mL

**Q.** And the Tmax ([3]; 1 mg/kg oral)?
**A.** 30 min

**Q.** What about the AUC(0-t) ([3]; 3 mg/kg oral) of the same molecule?
**A.** 49.9 ± 10.4 ng·h/mL

**Q.** What about the Tmax ([3]; 3 mg/kg oral) of the same molecule?
**A.** 84 ± 108 min

**Q.** What about the concentration at 4 h ([3]; oral, all treatment groups (0.3, 1, 3 mg/kg), day 9, below LLOQ, read-out: plasma concentration at 4 h after drug administration) of the same molecule?
**A.** < 0.5 ng/mL

**Q.** What about the Cmax ([3]; 0.3 mg/kg, 0.3 mg/kg oral) of the same molecule?
**A.** 1.5 ± 0.5 ng/mL

**Q.** What about the Cmax ([3]; 1 mg/kg, 1 mg/kg oral) of the same molecule?
**A.** 7.3 ± 3.3 ng/mL

**Q.** And the Cmax ([3]; 3 mg/kg, 3 mg/kg oral)?
**A.** 22.6 ± 2.3 ng/mL

**Q.** What about the IC50 (BTK [4]) of the same molecule?
**A.** 5 nM

**Q.** And the IC50 (A431)?
**A.** > 500 nM
